Where a name gives a salt, the structure may show the parent alone.

The subject of test [1] is MTT (mouse pheochromocytoma). Kind of test: IC50 of cell viability (ATP content); AC50 where efficacy is positive. To be noted: (24 or 48 h).
For test [2], the system named is MTT (mouse pheochromocytoma). As to the kind of experiment: efficacy (maximal response) relative to doxorubicin = -100% and DMSO = 0%; higher = less inhibition of viability. To be noted: (24 or 48 h).

As for `C\N=C1/C=C\C(\C=C1)=C(/C2=CC=C(C=C2)N(C)C)C3=CC=C(C=C3)N(C)C` [METHYL VIOLET], the “IC50 of cell viability” value in test [1] was found to be 7.5 µM. The efficacy in test [2] is -70.3%.
On the same counts, the results for `C#C[C@]1(O)CC[C@H]2[C@@H]3CCc4cc(OC5CCCC5)ccc4[C@H]3CC[C@@]21C` [Quinestrol] are 18.8 µM and -61.1%.
Regarding `CC1=CC(=CC=C1N)C(\C2=CC=C(N)C=C2)=C3/C=CC(=N)C=C3` [C.I. Basic Violet 14, free base], the “IC50 of cell viability” value in test [1] stood at 2.37 µM. The efficacy in test [2] was -47.4%.
On the same counts, the results for `CCCOc1ccc2[nH]c(NC(=O)OC)nc2c1` [OXIBENDAZOLE] are 0.531 µM and -39%.
On the same counts, the results for `N#Cc1nn(-c2c(Cl)cc(C(F)(F)F)cc2Cl)c(N)c1[S+]([O-])C(F)(F)F` (centres undefined) [FIPRONIL] are 23.7 µM and -88.6%.
On the same counts, the results for `CC(C)COC(=O)OCN1C(=O)CN(CCN2CC(=O)N(COC(=O)OCC(C)C)C(=O)C2)CC1=O` [Sobuzoxane] are 0.841 µM and -56.1%.
On to `CC(=O)[O][Hg][c]1ccccc1` [PHENYLMERCURIC ACETATE], for which the “IC50 of cell viability” value in test [1] was found to be 2.37 µM. Moreover, the efficacy in test [2] is -93.4%.
On the same counts, the results for `CC(C)C[C@@H](NC(=O)[C@@H](Cc1ccccc1)NC(=O)c1cnccn1)B(O)O` [BORTEZOMIB] are 0.596 µM and -74.6%.
The like results for `CCCCCCCCCCCCCCCC[N+](C)(C)C` [Cetyltrimethylammonium bromide] were, in that order, 13.3 µM and -89.1%.
On the same counts, the results for `Oc1cccc[c]1[Hg][Cl]` [MERCUFENOL CHLORIDE] are 2.99 µM and -83.5%.
In the case of `COC(=O)C[C@](O)(CCCC(C)(C)O)C(=O)O[C@H]\1[C@H]2C3=CC4=C(OCO4)C=C3CCN5CCC[C@]25\C=C1OC` [Homoharringtonine], the “IC50 of cell viability” value in test [1] was 0.237 µM. The efficacy in test [2] was -73.7%.
On the same counts, the results for `COC(=O)C12CCC(C)(C)CC1C3C(=O)\C=C4/C(C)(CCC5C(C)(C)C(=O)\C(=C/C45C)C#N)C3(C)CC2` (centres undefined) [RTA 402] are 6.68 µM and -108%.
On the same counts, the results for `NC/1=N/C(S)C/2\N=C/NC2=N1` (centres undefined) [6-Thioguanine (6-TG)] are 21.1 µM and -78.6%.
The like results for `O=Cc1ccccc1C=O` [PHTHARAL] were, in that order, 13.3 µM and -54.4%.
As for `Cc1nc2ccccc2n1Cc1ccc(Cl)cc1` [Chlormidazole], the “IC50 of cell viability” value in test [1] worked out at 13.3 µM. Moreover, the efficacy in test [2] was -59%.
The like results for `CC(=O)Nc1ccc(NC(=S)NC(=O)c2ccc(C(C)(C)C)cc2)cc1` were, in that order, 2.66 µM and -56%.
Consider `CN(C)C1=CC=C(C=C1)C(=C2\C=C/C(/C=C2)=[N+](/C)C)\C3=C(O)C(=CC4=CC(=CC=C34)S([O-])(=O)=O)S([O-])(=O)=O` [LISSAMINE GREEN B], for which the “IC50 of cell viability” value in test [1] was found to be 6.68 µM. Further, the efficacy in test [2] is -54.2%.
On the same counts, the results for `CC[C@@]1(O)C(=O)OC/C2=C1/C=C/3N(CC4=CC5=C(C=CC=C5[N+]([O-])=O)N=C34)C2=O` [RUBITECAN] are 0.422 µM and -54.5%.
The like results for `O=C(Nc1ccc([N+](=O)[O-])cc1)Nc1ccc([N+](=O)[O-])cc1` [Nicarbazin] were, in that order, 10.6 µM and -44.1%.
On the same counts, the results for `CCc1nc(N)nc(N)c1-c1ccc(Cl)cc1` [Pyrimethamine] are 8.41 µM and -35%.
On to `[Na+].CCC(C1CCC(C)C(O1)C(C)C(O)C(C)C(=O)C(CC)C2OC\3(O[C@]4(CC[C@@](C)(O4)C5CC[C@@](O)(CC)C(C)O5)C(O)\C=C3)C(C)CC2C)C([O-])=O` (some centres undefined) [SALINOMYCIN, SODIUM], for which the “IC50 of cell viability” value in test [1] was determined as 3.35 µM. Further, the efficacy in test [2] is -47.9%.
On the same counts, the results for `NNCCc1ccccc1` [Phenelzine sulfate] are 5.08 µM and -52.6%.
On the same counts, the results for `CCC(C(=O)O)C1OC(C(C)C(O)C(C)C(=O)C(CC)C2OC3(C=CC(O)C4(CCC(C)(C5CCC(O)(CC)C(C)O5)O4)O3)C(C)CC2C)C(C)CC1C` (centres undefined) [NARASIN] are 1.68 µM and -46.7%.
Turning to `COC/1=C/C=C2\C(=C/C1=O)[C@H](CCC3=CC(=C(OC)C(=C23)OC)OC)NC(C)=O` [Colchicine], in test [1], the “IC50 of cell viability” value came to 0.473 µM. Also, in test [2], the efficacy was -84.8%.
On the same counts, the results for `Cc1cc(N)c2ccccc2[n+]1CCCCCCCCCC[n+]1c(C)cc(N)c2ccccc21` [Dequalinium dichloride] are 11.4 µM and -81.5%.
On the same counts, the results for `CCNC(=O)[C@@H]1CCCN1C(=O)[C@H](CCCNC(=N)N)NC(=O)[C@H](CC(C)C)NC(=O)[C@@H](Cc1c[nH]c2ccccc12)NC(=O)[C@H](Cc1ccc(O)cc1)NC(=O)[C@H](CO)NC(=O)[C@H](Cc1c[nH]c2ccccc12)NC(=O)[C@H](Cc1c[nH]cn1)NC(=O)[C@@H]1CCC(=O)N1` [DESLORELIN ACETATE] are 2.99 µM and -88.5%.
The like results for `[Hg+][c]1ccccc1` [PHENYLMERCURIC BORATE] were, in that order, 2.99 µM and -91.5%.
Turning to `COc1cc(-c2ccc(-[n+]3nc(-c4ccccc4)nn3-c3ccc([N+](=O)[O-])cc3)c(OC)c2)ccc1-[n+]1nc(-c2ccccc2)nn1-c1ccc([N+](=O)[O-])cc1` [NITROBLUE TETRAZOLIUM CHLORIDE], the “IC50 of cell viability” value in test [1] is 21.1 µM. For the same compound, the efficacy in test [2] is -107%.
As to `CC/1=C/C(=O)N(O)/C(=C1)C2CCCCC2` [Ciclopirox ethanolamine], in test [1], the “IC50 of cell viability” value came out at 4.53 µM. Further, in test [2], the efficacy was -84.9%.
On to `CCCSc1ccc2[nH]c(NC(=O)OC)nc2c1` [Albendazole], for which the “IC50 of cell viability” value in test [1] came out at 0.718 µM. In test [2], the efficacy is -57.9%.
As to `CCCOc1ccc2nc(NC(=O)OC)sc2c1` [Tioxidazole], in test [1], the “IC50 of cell viability” value is 11.9 µM. Besides, the efficacy in test [2] was -55.6%.
As for `CCCCCCCCCCCCCCCC[N+](C)(C)CC` [Mecetronium ethylsulfate], the “IC50 of cell viability” value in test [1] stood at 11.9 µM. For the same compound, the efficacy in test [2] is -78.5%.
On the same counts, the results for `C[C@@H]1CN(CCCn2c3ccccc3c3ccccc32)C[C@H](C)N1` [Rimcazole dihydrochloride] are 21.1 µM and -89.8%.
The like results for `N=c1ccn2c(n1)O[C@H]1[C@H](O)[C@@H](CO)O[C@H]12` [Ancitabina] were, in that order, 2.37 µM and -68.2%.
For `CC[n+]1c(-c2ccccc2)c2cc(N)ccc2c2ccc(N)cc21.[Br-]` [HOMIDIUM BROMIDE], in test [1], the “IC50 of cell viability” value stood at 11.9 µM. Besides, the efficacy in test [2] is -34.1%.
On the same counts, the results for `O=C(Nc1ccc([N+](=O)[O-])cc1Cl)c1cc(Cl)ccc1O` [Niclosamide] are 0.473 µM and -41.1%.
As to `CCCCCCCCCCCCCC[n+]1ccc(C)cc1` [MYRISTYL-GAMMA-PICOLINIUM CHLORIDE], the “IC50 of cell viability” value in test [1] was determined as 0.531 µM. Also, the efficacy in test [2] is -39.7%.
